Patent publication EP4635969A1, “NOVEL GLUCOCORTICOID, METHOD FOR PREPARING SAME, AND USE THEREOF” (Tianjin Pharmaceutical Biotechnology Co., Ltd., priority 2022, dated 2024)
Where two headings read alike, the source gives them in different places.

Experiments:
Type in all cases: cell-based
[1] = target: T1, glucocorticoid receptor (GR) (Homo sapiens, UniProt P04150); experiment: Assay for agonist activity on glucocorticoid receptor (luciferase reporter, HEK293 cells transfected with pBIND-GR plasmid)
T1 sequence (P04150 521-777): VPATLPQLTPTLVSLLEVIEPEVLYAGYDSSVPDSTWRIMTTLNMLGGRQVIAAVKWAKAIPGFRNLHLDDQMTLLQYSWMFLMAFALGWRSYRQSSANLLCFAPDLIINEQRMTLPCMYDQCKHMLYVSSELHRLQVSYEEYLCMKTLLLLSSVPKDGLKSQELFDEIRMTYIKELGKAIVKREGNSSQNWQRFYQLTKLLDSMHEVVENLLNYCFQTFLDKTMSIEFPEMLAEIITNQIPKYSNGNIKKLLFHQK
Outline: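 HEK293 cells transfected with pBIND-GR, seeded in phenol red-free DMEM with 5% charcoal-stripped serum, then exposed to compounds in a 10-point, 4-fold dilution series from 10 µM, in duplicate. Luciferase luminescence read after incubation; EC50 from nonlinear fit. Vehicle blank: 0.1% DMSO.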

[2] = target: T2, progesterone receptor (PR) (Homo sapiens, UniProt P06401); experiment: Assay for agonist activity on progesterone receptor (luciferase reporter, HEK293 cells transfected with pBIND-PR plasmid); settings: for EC50: EC50 of agonist activity, HEK293 reporter cells, top concentration 50 µM, read-out: Nuclear receptor enzyme activity (nM) PR; for Target selectivity PR/GR: ratio of EC50 values
T2 sequence (P06401 678-933): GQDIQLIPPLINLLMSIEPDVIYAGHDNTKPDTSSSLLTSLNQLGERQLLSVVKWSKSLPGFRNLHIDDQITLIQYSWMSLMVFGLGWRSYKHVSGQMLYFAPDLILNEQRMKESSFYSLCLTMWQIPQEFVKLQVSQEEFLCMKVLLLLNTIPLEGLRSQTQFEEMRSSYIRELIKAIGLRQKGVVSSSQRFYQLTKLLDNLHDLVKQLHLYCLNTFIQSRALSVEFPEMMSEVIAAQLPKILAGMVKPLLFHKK
Method: (§1) Pharmacological Example 2: Assay for Agonist Activity on Mineralocorticoid Receptor (MR) and Progesterone Receptor (PR)
(§2) Test compound stock solutions: The test compounds (compounds 4, 5, 7, 8, 9, 11, 13, 16, 17, 18, 22, 23, 24, 34, 35, 36, 38, 41, 45, 47, 53, 55, and 59) were accurately weighed, dissolved in DMSO to prepare stock solutions at a concentration of 20 mM, and stored at -20 °C.
(§3) The test compounds were subjected to a 4-fold serial dilution starting from an initial concentration of 50 µ M, generating a 12-point concentration gradient with duplicate wells for each concentration. The blank control consisted of 0.1% DMSO.
(§4) The HEK293 stable cell lines […] transfected with mineralocorticoid receptor (MR) and progesterone receptor (PR) (ICE Bioscience, Lot No. TYP-20220819, TPJ-20220812) were cultured in Dulbecco's Modified Eagle Medium (DMEM) supplemented with 10% fetal bovine serum (FBS) and 200 µ g/ml Hygromycin B in a cell incubator containing 5% CO2 at 37 °C. The spent medium was aspirated, and the cells were washed once with phosphate-buffered saline (PBS). Then, 1 mL of TrypLE™ Express solution was added, and the cells were incubated at 37 °C for approximately 2 min. When the cells detached from the bottom of the cell culture dish, approximately 5 mL of pre-warmed complete medium at 37 °C was added. The cell suspension was gently pipetted with a pipette to dissociate clumped cells. The cell suspension was transferred to a sterile centrifuge tube and centrifuged at 1000 rpm for 5 min to pellet the cells for experiments or subculture..
(§5) HEK293 cells were digested and seeded into 6-cm culture dishes. The pBIND-MR and pBIND-PR plasmids were separately transfected into the HEK293 cells using a transfection reagent, resulting in HEK293 cells successfully transfected with the pBIND-MR and pBIND-PR plasmids, respectively. The cells were resuspended in phenol red-free DMEM medium containing 5% charcoal-stripped serum, counted, and then seeded into 96-well plates. The test compounds were added, and the plates were then incubated in an incubator. The luminescence signal values were measured using a multimode microplate reader following the instructions of the luciferase assay kit. The EC50 values of each test compound were calculated using the nonlinear fitting formula with GraphPad Prism 8.0 software.

[3] = target: T3, mineralocorticoid receptor (MR) (Homo sapiens, UniProt P08235); experiment: Assay for agonist activity on mineralocorticoid receptor (luciferase reporter, HEK293 cells transfected with pBIND-MR plasmid); settings: for EC50: EC50 of agonist activity, HEK293 reporter cells, top concentration 50 µM, read-out: Nuclear receptor enzyme activity (nM) MR; for Target selectivity MR/GR: ratio of EC50 values
T3 sequence (P08235 726-984): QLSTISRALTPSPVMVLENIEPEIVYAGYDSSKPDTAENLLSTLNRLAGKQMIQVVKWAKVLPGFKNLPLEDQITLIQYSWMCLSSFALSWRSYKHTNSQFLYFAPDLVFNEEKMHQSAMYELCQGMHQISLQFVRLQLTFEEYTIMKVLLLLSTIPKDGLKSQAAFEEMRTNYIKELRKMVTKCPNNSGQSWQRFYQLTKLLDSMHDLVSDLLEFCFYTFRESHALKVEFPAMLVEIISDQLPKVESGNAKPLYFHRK
Method: as §1, §2, §3, §4, §5

[4] = EC50 of agonist activity, HEK293 reporter cells, read-out: Nuclear receptor enzyme activity (nM) GR
[5] = HEK293 cells transfected with pBIND-GR, luciferase signal, read-out: GR agonist EC50

Structure (SMILES) | EC50 [1, 4] [nM] | EC50 [1, 5] [nM] | EC50 [2] [nM] | Target selectivity PR/GR [2] | EC50 [3] [nM] | Target selectivity MR/GR [3]
C[C@]12C=CC(=O)C=C1[C@@H](F)C[C@H]1[C@@H]3C[C@H]4OC(c5ccc(C[S+]([O-])C6CCOC6=O)cc5)O[C@@]4(C(=O)CO)[C@@]3(C)C[C@H](O)[C@@]12F (stereo partly drawn) [Compound 55, (2S,6aS,6bR,7S,8aS,8bS,11aR,12aS,12bS)-2,6b-Difluoro-7-hydroxy-8b-(2-hydroxyacetyl)-6a,8a-dimethyl-10-(4-(((2-oxotetrahydrofuran-3-yl)sulfinyl)methyl)phenyl)-1,2,6a,6b,7,8,8a,8b,11a,12,1 2a,12b-dodecahydro-4H-naphtho[2',1':4,5]indeno[1,2-d][1,3]dioxol-4-one] | 1.33 | 1.33 | > 50000 | > 3.8×10^4 | > 50000 | > 3.8×10^4
C[C@]12C=CC(=O)C=C1[C@@H](F)C[C@H]1[C@@H]3C[C@H]4OC(c5ccc(COC6CCOC6=O)cc5F)O[C@@]4(C(=O)CO)[C@@]3(C)C[C@H](O)[C@@]12F (stereo partly drawn) [Compound 7, (2S,6aS,6bR,7S,8aS,8bS,11aR,12aS,12bS)-2,6b-Difluoro-10-(2-fluoro-4-(((2-oxotetrahydrofuran-3-yl)oxy)methyl)phenyl)-7-hydroxy-8b-(2-hydroxyacetyl)-6a,8a-dimethyl-1,2,6a,6b,7,8,8a,8b,11a, 12,12a,12b-dodecahydro-4H-naphtho[2',1':4,5]indeno[1,2-d][1,3]dioxol-4-one] | 1.21 | 1.21 | > 50000 | > 4.1×10^4 | > 50000 | > 4.1×10^4
C[C@]12C=CC(=O)C=C1CC[C@H]1[C@@H]3C[C@H]4OC(c5ccc(CS(=O)(=O)C6CCOC6=O)cc5)O[C@@]4(C(=O)CO)[C@@]3(C)C[C@H](O)[C@@]12F (stereo partly drawn) [Compound 59, (6aS,6bR,7S,8aS,8bS,11aR,12aS,12bS)-6b-Fluoro-7-hydroxy-8b-(2-hydroxyacetyl)-6a,8a-dimethyl-10-(4-(((2-oxotetrahydrofuran-3-yl)sulfonyl)methyl)phenyl)-1,2,6a,6b,7,8,8a,8b,11a,12,12a,12b-dodecahydro-4H-naphtho[2',1':4,5]indeno[1,2-d][1,3]dioxol-4-one] | 4.01 | 4.01 | > 50000 | > 1.2×10^4 | > 50000 | > 1.2×10^4
C[C@]12C=CC(=O)C=C1CC[C@H]1[C@@H]3C[C@H]4OC(c5ccc(CNC6CCOC6=O)cc5)O[C@@]4(C(=O)CO)[C@@]3(C)C[C@H](O)[C@@]12F (stereo partly drawn) [Compound 18, (6aS,6bR,7S,8aS,8bS,11aR,12aS,12bS)-6b-Fluoro-7-hydroxy-8b-(2-hydroxyacetyl)-6a,8a-dimethyl-10-(4-(((2-oxotetrahydrofuran-3-yl)amino)methyl)phenyl)-1,2,6a,6b,7,8,8a,8b,11a,12,12a,12b-dodecahydro-4H-naphtho[2',1':4,5]indeno[1,2-d][1,3]dioxol-4-one] | 1.62 | 1.62 | > 50000 | > 3.1×10^4 | > 50000 | > 3.1×10^4
C[C@]12C=CC(=O)C=C1[C@@H](F)C[C@H]1[C@@H]3C[C@H]4OC(c5ccc(OCC6CCOC6=O)cc5)O[C@@]4(C(=O)CO)[C@@]3(C)C[C@H](O)[C@@]12F (stereo partly drawn) [Compound 13, (2S,6aS,6bR,7S,8aS,8bS,11aR,12aS,12bS)-2,6b-Difluoro-7-hydroxy-8b-(2-hydroxyacetyl)-6a,8a-dimethyl-10-(4-((2-oxotetrahydrofuran-3-yl)methoxy)phenyl)-1,2,6a,6b,7,8,8a,8b,11a,12,12a,12b-dodecahydro-4H-naphtho[2',1':4,5]indeno[1,2-d][1,3]dioxol-4-one] | 3.43 | 3.43 | > 50000 | > 1.4×10^4 | > 50000 | > 1.4×10^4
C[C@]12C=CC(=O)C=C1CC[C@H]1[C@@H]3C[C@H]4OC(c5ccc(SC6CCOC6=O)cc5)O[C@@]4(C(=O)CO)[C@@]3(C)C[C@H](O)[C@@]12F (stereo partly drawn) [Compound 41, (6aS,6bR,7S,8aS,8bS,11aR,12aS,12bS)-6b-Fluoro-7-hydroxy-8b-(2-hydroxyacetyl)-6a,8a-dimethyl-10-(4-((2-oxotetrahydrofuran-3-yl)thio)phenyl)-1,2,6a,6b,7,8,8a,8b,11a,12,12a,12b-dodecahydr o-4H-naphtho[2',1':4,5]indeno[1,2-d][1,3]dioxol-4-one] | 6.19 | 6.19 | > 50000 | > 8077 | > 50000 | > 8077
C[C@]12C=CC(=O)C=C1[C@@H](F)C[C@H]1[C@@H]3C[C@H]4OC(c5ccc(NC(=O)C6COC(=O)C6)cc5)O[C@@]4(C(=O)SCF)[C@@]3(C)C[C@H](O)[C@@]12F (stereo partly drawn) [Compound 5, S-(Fluoromethyl) (2S,6aS,6bR,7S,8aS,8bS,11aR,12aS,12bS)-2,6b-difluoro-7-hydroxy-6a,8a-dimethyl-4-oxo-10-(4-(5-oxotetrahydrofuran-3-carboxamido)phenyl)-1,2,4,6a,6b,7,8,8a,11a,12,12a,12b-dodecahydro-8b H-naphtho[2',1':4,5]indeno[1,2-d][1,3]dioxole-8b-carbothioate] | 5.23 | 5.23 | > 50000 | > 9560 | > 50000 | > 9560
C[C@]12C=CC(=O)C=C1CC[C@H]1[C@@H]3C[C@H]4OC(C5CCC(SC6CCOC6=O)CC5)O[C@@]4(C(=O)CO)[C@@]3(C)C[C@H](O)[C@@]12F (stereo partly drawn) [Compound 45, (6aS,6bR,7S,8aS,8bS,11aR,12aS,12bS)-6b-Fluoro-7-hydroxy-8b-(2-hydroxyacetyl)-6a,8a-dimethyl-10-(4-((2-oxotetrahydrofuran-3-yl)thio)cyclohexyl)-1,2,6a,6b,7,8,8a,8b,11a,12,12a,12b-dodeca hydro-4H-naphtho[2',1':4,5]indeno[1,2-d][1,3]dioxol-4-one] | 1.62 | 1.62 | > 50000 | > 3.1×10^4 | > 50000 | > 3.1×10^4
C[C@]12C=CC(=O)C=C1[C@@H](F)C[C@H]1[C@@H]3C[C@H]4OC(c5ccc(CNC6CCOC6=O)cc5)O[C@@]4(C(=O)CO)[C@@]3(C)C[C@H](O)[C@@]12F (stereo partly drawn) [Compound 9, (2S,6aS,6bR,7S,8aS,8bS,11aR,12aS,12bS)-2,6b-Difluoro-7-hydroxy-8b-(2-hydroxyacetyl)-6a,8a-dimethyl-10-(4-(((2-oxotetrahydrofuran-3-yl)amino)methyl)phenyl)-1,2,6a,6b,7,8,8a,8b,11a,12,12 a,12b-dodecahydro-4H-naphtho[2',1':4,5]indeno[1,2-d][1,3]dioxol-4-one] | 3.27 | 3.27 | > 50000 | > 1.5×10^4 | > 50000 | > 1.5×10^4
